Test systems include HL-60(TB) leukemia; NCI-H460 lung; HS 578T breast; RPMI-8226 leukemia; OVCAR-4 ovarian; MDA-N; HOP-62 NSCLC; LOX IMVI melanoma; KM12 colon; SF-295 CNS; SK-OV-3 ovarian; IGROV1 ovarian; NCI-H23 lung; A549 NSCLC; SF-268 CNS; UACC-62 melanoma.
Common to all, as to assay: DTP human tumour cell line panel, 48 h

Structures are written as SMILES.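 48-hour exposure; five concentrations; linearly interpolated endpoints. Definition used: TGI = concentration required for complete inhibition of growth.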 Bounds are passed on as bounds.

Take `CCOC(=O)Cn1c(=O)c2nc(SC)sc2n(CC)c1=S`: the TGI was more than 100 µM in the test on HL-60(TB) leukemia; more than 100 µM in the test with NCI-H460 lung; 95.8 µM in the test with HS 578T breast; more than 100 µM in the test with RPMI-8226 leukemia; more than 100 µM with OVCAR-4 ovarian; more than 100 µM in the test on MDA-N. For the same compound, the TGI in the test on HOP-62 NSCLC, in the test on LOX IMVI melanoma, in the test with KM12 colon, in the test on SF-295 CNS, in the test with SK-OV-3 ovarian and in the test with IGROV1 ovarian was more than 100 µM throughout. Further, the TGI in the test with NCI-H23 lung, in the test on A549 NSCLC and in the test with SF-268 CNS was more than 100 µM in each case.

For the compound `CC(=O)Oc1ccc(-c2cc3ccccc3oc2=O)cc1`, the TGI in the test on HL-60(TB) leukemia, with NCI-H460 lung, in the test on HS 578T breast, in the test on RPMI-8226 leukemia, in the test with OVCAR-4 ovarian and with MDA-N was more than 100 µM each time. The TGI is more than 100 µM in the test on HOP-62 NSCLC; more than 100 µM in the test with LOX IMVI melanoma; 39.9 µM with KM12 colon; more than 100 µM in the test on SF-295 CNS; more than 100 µM with NCI-H23 lung; more than 100 µM in the test with A549 NSCLC. The TGI with SF-268 CNS is more than 100 µM.

Take `COC(=O)C1CN=CN1CCc1ccccc1` (stereo not given): the TGI in the test on HL-60(TB) leukemia, with NCI-H460 lung, in the test on HS 578T breast, with RPMI-8226 leukemia, in the test on OVCAR-4 ovarian and in the test with MDA-N was more than 100 µM throughout. Further, the TGI in the test with LOX IMVI melanoma, in the test with KM12 colon, in the test on SF-295 CNS, in the test with SK-OV-3 ovarian, with IGROV1 ovarian and in the test with NCI-H23 lung was more than 100 µM throughout. For the same compound, the TGI in the test with A549 NSCLC and with UACC-62 melanoma was more than 100 µM in each case.

On to `CC(C)(C)OC(=O)N1CCC(C(=O)O)CC1`, for which the TGI in the test on HL-60(TB) leukemia, in the test with NCI-H460 lung, in the test on HS 578T breast, with RPMI-8226 leukemia, in the test on OVCAR-4 ovarian and in the test on MDA-N was more than 100 µM throughout. For the same compound, the TGI with HOP-62 NSCLC, with LOX IMVI melanoma, in the test on KM12 colon, in the test with SF-295 CNS, in the test with IGROV1 ovarian and in the test on NCI-H23 lung was more than 100 µM in each case. Also, the total growth inhibition concentration (TGI) in the test on A549 NSCLC, in the test on SF-268 CNS and in the test on UACC-62 melanoma was more than 100 µM each time.

Take `CC[C@@H]1CC[C@@H]2[C@H](CC[C@]3(C)[C@@H](OS(=O)(=O)c4ccc(C)cc4)CC[C@@H]23)[C@H]1COS(=O)(=O)c1ccc(C)cc1`: the TGI with HL-60(TB) leukemia, in the test on NCI-H460 lung, in the test on HS 578T breast, in the test with RPMI-8226 leukemia, in the test on OVCAR-4 ovarian and in the test on MDA-N was more than 100 µM throughout. Also, the TGI with LOX IMVI melanoma, with SF-295 CNS, in the test with IGROV1 ovarian, in the test on A549 NSCLC and in the test on SF-268 CNS was more than 100 µM each time.

For the compound `O=S(Nc1ccccc1)c1cccc(Cl)c1` (stereo not given), the concentration for total growth inhibition (TGI) in the test with HL-60(TB) leukemia, in the test on NCI-H460 lung, with HS 578T breast, with RPMI-8226 leukemia, in the test with MDA-N and in the test with HOP-62 NSCLC was more than 100 µM throughout. In addition, the TGI with LOX IMVI melanoma, with KM12 colon, in the test on SF-295 CNS, in the test with IGROV1 ovarian, in the test on NCI-H23 lung and with A549 NSCLC was more than 100 µM throughout. In addition, the TGI with SF-268 CNS was more than 100 µM.

As to `CCSc1n/c(=C\c2ccco2)c2nncn12`, the TGI in the test on HL-60(TB) leukemia, in the test on HS 578T breast, in the test with RPMI-8226 leukemia, in the test with MDA-N, in the test on HOP-62 NSCLC and in the test with LOX IMVI melanoma was more than 100 µM in each case. In addition, the TGI in the test with KM12 colon, in the test on SF-295 CNS, in the test with SK-OV-3 ovarian, in the test with IGROV1 ovarian, in the test on NCI-H23 lung and in the test on A549 NSCLC was more than 100 µM each time. Besides, the TGI with SF-268 CNS and in the test with UACC-62 melanoma was more than 100 µM each time.

`COc1cc(CO)c(CC(=O)NCCCc2ccccc2)cc1OC`: the TGI in the test with HL-60(TB) leukemia, in the test with NCI-H460 lung, with HS 578T breast, in the test with OVCAR-4 ovarian, in the test on MDA-N and with HOP-62 NSCLC was more than 100 µM in each case. Also, the TGI in the test with LOX IMVI melanoma, in the test with KM12 colon, in the test on IGROV1 ovarian, in the test with NCI-H23 lung, with A549 NSCLC and in the test with UACC-62 melanoma was more than 100 µM each time.

Take `CC(=O)O[C@H]1[C@@H]2OC(=O)[C@@](O)(CC3CCCO3)[C@@H]2CC(=O)[C@](C)(O)CC/C=C(\C)CCC[C@@H]1C` (stereo not given in full): the TGI in the test on HL-60(TB) leukemia was 57.8 µM; with NCI-H460 lung, more than 100 µM; in the test on HS 578T breast it was more than 100 µM; in the test with RPMI-8226 leukemia, more than 100 µM; in the test on OVCAR-4 ovarian, more than 100 µM; with MDA-N it was 49.4 µM. Besides, the TGI was 46.1 µM with LOX IMVI melanoma; more than 100 µM in the test on KM12 colon; more than 100 µM in the test on SF-295 CNS; more than 100 µM in the test with IGROV1 ovarian; more than 100 µM in the test with A549 NSCLC; more than 100 µM in the test on SF-268 CNS. Moreover, the TGI with UACC-62 melanoma was more than 100 µM.

For `CCN(CC)/C(Sc1ccccc1)=C(\C(Cl)=C(Cl)Cl)[N+](=O)[O-]`, the TGI in the test on HL-60(TB) leukemia was 5.94 µM; in the test on NCI-H460 lung it was 50.3 µM; in the test with HS 578T breast it was 81 µM; with OVCAR-4 ovarian, more than 100 µM; in the test with MDA-N it was 40.2 µM; in the test with HOP-62 NSCLC, 42.4 µM. The TGI in the test with LOX IMVI melanoma is 25.8 µM; in the test on KM12 colon, 36.3 µM; in the test with SF-295 CNS, 37.1 µM; in the test on SK-OV-3 ovarian, 73.1 µM; in the test with IGROV1 ovarian, 43.7 µM; in the test on NCI-H23 lung, 36.1 µM. In addition, the TGI in the test on A549 NSCLC came to 52.4 µM; in the test on SF-268 CNS, 58.3 µM; in the test with UACC-62 melanoma, 43.7 µM.

One may read the TGI as the concentration at which net growth stops. Low values mean more potent growth arrest, high ones less potent growth arrest.

Source of the values: PubChem BioAssay (NCI).
